Data reported in ChEMBL document CHEMBL4507282, “Data for DCP probe BI-1950” (2021).
Activity calls are given as the source filed them. The calls are words filed in the database; no cut-off is given here.

Tests used:
[1] = biological target: Tyrosine-protein kinase ABL2 (Homo sapiens) (UniProt P42684); conditions: Compound concentration 1000.0 nM
[2] = biological target: Ephrin type-A receptor 6 (Homo sapiens) (UniProt Q9UF33); conditions: Compound concentration 1000.0 nM
[3] = biological target: MAP/microtubule affinity-regulating kinase 3 (Homo sapiens) (UniProt P27448); conditions: Compound concentration 1000.0 nM
[4] = biological target: Serine/threonine-protein kinase NLK (Homo sapiens) (UniProt Q9UBE8); conditions: Compound concentration 1000.0 nM
Serine/threonine-protein kinase NLK (Homo sapiens), sequence (Q9UBE8 whole entry): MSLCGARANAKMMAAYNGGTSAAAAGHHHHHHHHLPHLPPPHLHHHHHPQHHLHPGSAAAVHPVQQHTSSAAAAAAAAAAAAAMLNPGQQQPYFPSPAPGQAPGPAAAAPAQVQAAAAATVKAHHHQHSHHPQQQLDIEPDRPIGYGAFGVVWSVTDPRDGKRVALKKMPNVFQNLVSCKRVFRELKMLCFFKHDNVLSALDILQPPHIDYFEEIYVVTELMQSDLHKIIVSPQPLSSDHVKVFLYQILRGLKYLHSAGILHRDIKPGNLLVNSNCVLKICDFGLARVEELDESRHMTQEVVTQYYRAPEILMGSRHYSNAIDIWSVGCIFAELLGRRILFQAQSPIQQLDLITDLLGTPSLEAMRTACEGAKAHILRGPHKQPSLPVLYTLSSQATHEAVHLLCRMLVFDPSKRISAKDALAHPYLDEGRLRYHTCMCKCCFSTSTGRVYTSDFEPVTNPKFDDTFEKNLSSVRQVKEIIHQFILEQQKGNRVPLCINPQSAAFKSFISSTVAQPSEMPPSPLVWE

Integrin alpha-L = Integrin alpha-L (Homo sapiens, UniProt P20701); experiment: ITGAL binding assay
[5] = biological target: Serine/threonine-protein kinase PAK 3 (Homo sapiens) (UniProt O75914); conditions: Compound concentration 1000.0 nM
[6] = biological target: Ribosomal protein S6 kinase alpha-6 (Homo sapiens) (UniProt Q9UK32); conditions: Compound concentration 1000.0 nM
[7] = biological target: Phosphatidylinositol 4-phosphate 3-kinase C2 domain-containing subunit beta (Homo sapiens) (UniProt O00750); conditions: Compound concentration 1000.0 nM
[8] = biological target: 5-hydroxytryptamine receptor 2A (Homo sapiens) (UniProt P28223); conditions: Compound concentration 10.0 uM
[9] = biological target: Serine/threonine-protein kinase SIK1 (Homo sapiens) (UniProt P57059); conditions: Compound concentration 1000.0 nM
[10] = biological target: Histamine H1 receptor (Homo sapiens) (UniProt P35367); conditions: Compound concentration 10.0 uM
Histamine H1 receptor (Homo sapiens), sequence (P35367 whole entry): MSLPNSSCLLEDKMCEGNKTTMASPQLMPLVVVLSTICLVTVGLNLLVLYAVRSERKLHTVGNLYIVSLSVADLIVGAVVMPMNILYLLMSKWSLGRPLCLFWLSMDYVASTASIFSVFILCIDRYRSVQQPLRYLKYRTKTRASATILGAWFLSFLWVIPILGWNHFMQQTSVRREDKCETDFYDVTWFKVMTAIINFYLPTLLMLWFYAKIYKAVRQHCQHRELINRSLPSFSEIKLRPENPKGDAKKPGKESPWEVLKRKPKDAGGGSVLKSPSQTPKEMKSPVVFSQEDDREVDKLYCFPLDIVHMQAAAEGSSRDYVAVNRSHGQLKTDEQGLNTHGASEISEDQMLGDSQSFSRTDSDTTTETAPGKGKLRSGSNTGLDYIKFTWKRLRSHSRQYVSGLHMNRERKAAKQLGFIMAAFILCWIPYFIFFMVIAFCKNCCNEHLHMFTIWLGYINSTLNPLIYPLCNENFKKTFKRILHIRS

[11] = biological target: Serine/threonine-protein kinase pim-2 (Homo sapiens) (UniProt Q9P1W9); conditions: Compound concentration 1000.0 nM
[12] = biological target: Homeodomain-interacting protein kinase 4 (Homo sapiens) (UniProt Q8NE63); conditions: Compound concentration 1000.0 nM
[13] = system: Receptor-type tyrosine-protein kinase FLT3 (Homo sapiens), P36888 [UNDEFINED MUTATION]; conditions: Compound concentration 1000.0 nM
[14] = biological target: Ribosomal protein S6 kinase alpha-4 (Homo sapiens) (UniProt O75676); conditions: Compound concentration 1000.0 nM
Ribosomal protein S6 kinase alpha-4 (Homo sapiens), sequence (O75676 whole entry, looked up): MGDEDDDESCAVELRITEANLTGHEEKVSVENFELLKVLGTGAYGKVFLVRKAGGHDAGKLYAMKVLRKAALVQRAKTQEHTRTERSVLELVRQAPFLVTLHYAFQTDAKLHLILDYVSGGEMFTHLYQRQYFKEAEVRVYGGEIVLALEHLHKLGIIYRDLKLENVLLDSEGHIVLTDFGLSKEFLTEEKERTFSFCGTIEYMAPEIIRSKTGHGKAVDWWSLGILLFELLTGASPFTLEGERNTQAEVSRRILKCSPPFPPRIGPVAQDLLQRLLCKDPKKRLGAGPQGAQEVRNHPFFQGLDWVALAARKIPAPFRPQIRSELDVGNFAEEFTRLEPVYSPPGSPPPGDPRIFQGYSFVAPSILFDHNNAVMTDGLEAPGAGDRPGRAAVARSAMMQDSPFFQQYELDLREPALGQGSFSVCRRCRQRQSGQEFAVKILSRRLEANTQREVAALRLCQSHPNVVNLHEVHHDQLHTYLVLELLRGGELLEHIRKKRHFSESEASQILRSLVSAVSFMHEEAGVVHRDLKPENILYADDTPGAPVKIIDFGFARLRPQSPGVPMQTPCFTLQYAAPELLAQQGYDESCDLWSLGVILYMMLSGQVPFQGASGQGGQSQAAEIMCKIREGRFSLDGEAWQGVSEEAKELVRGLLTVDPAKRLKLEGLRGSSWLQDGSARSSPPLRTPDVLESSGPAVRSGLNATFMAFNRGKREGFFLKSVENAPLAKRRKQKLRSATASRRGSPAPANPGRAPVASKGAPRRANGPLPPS

[15] = biological target: Macrophage colony-stimulating factor 1 receptor (Homo sapiens) (UniProt P07333); conditions: Compound concentration 1000.0 nM
[16] = biological target: Angiopoietin-1 receptor (Homo sapiens) (UniProt Q02763); conditions: Compound concentration 1000.0 nM
[17] = biological target: Mitogen-activated protein kinase 1 (Homo sapiens) (UniProt P28482); conditions: Compound concentration 1000.0 nM
[18] = biological target: Calcium/calmodulin-dependent protein kinase kinase 2 (Homo sapiens) (UniProt Q96RR4); conditions: Compound concentration 1000.0 nM
[19] = system: Mast/stem cell growth factor receptor Kit (Homo sapiens), P10721 [V559D]; conditions: Compound concentration 1000.0 nM
[20] = system: Epidermal growth factor receptor (Homo sapiens), P00533 [L858R]; conditions: Compound concentration 1000.0 nM
[21] = biological target: Tyrosine-protein kinase CSK (Homo sapiens) (UniProt P41240); conditions: Compound concentration 1000.0 nM
[22] = system: Proto-oncogene tyrosine-protein kinase receptor Ret (Homo sapiens), P07949 [V804M]; conditions: Compound concentration 1000.0 nM
[23] = biological target: Serine/threonine-protein kinase DCLK2 (Homo sapiens) (UniProt Q8N568); conditions: Compound concentration 1000.0 nM
[24] = biological target: Myosin light chain kinase family member 4 (Homo sapiens) (UniProt Q86YV6); conditions: Compound concentration 1000.0 nM
Myosin light chain kinase family member 4 (Homo sapiens), sequence (Q86YV6 whole entry): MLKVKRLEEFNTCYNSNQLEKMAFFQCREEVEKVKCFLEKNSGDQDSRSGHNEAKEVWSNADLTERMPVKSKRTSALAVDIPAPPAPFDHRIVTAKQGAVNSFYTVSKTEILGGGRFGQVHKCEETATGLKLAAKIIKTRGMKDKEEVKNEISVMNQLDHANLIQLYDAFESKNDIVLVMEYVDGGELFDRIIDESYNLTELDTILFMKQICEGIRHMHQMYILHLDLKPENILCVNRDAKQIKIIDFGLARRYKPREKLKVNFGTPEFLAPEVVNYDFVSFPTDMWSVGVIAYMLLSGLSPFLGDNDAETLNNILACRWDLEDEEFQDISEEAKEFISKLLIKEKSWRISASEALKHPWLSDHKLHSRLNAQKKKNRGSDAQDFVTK

[25] = biological target: Activated CDC42 kinase 1 (Homo sapiens) (UniProt Q07912); conditions: Compound concentration 1000.0 nM
[26] = biological target: Serine/threonine-protein kinase Nek4 (Homo sapiens) (UniProt P51957); conditions: Compound concentration 1000.0 nM
[27] = biological target: Serine/threonine-protein kinase 3 (Homo sapiens) (UniProt Q13188); conditions: Compound concentration 1000.0 nM
Serine/threonine-protein kinase 3 (Homo sapiens), sequence (Q13188 whole entry, canonical isoform): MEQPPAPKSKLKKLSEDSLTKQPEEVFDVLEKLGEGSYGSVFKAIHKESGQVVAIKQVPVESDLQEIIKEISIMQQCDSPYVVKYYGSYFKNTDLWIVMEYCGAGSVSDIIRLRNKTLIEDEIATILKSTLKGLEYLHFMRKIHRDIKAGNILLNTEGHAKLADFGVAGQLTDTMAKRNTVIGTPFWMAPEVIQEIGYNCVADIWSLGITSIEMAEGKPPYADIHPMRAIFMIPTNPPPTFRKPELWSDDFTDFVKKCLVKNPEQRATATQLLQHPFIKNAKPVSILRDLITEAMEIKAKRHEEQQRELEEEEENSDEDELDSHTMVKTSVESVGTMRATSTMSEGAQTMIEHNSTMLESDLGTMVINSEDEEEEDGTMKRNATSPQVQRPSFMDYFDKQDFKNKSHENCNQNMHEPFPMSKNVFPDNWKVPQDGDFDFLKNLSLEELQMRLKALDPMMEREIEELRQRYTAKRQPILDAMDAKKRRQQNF

[28] = biological target: Phosphorylase b kinase gamma catalytic chain, skeletal muscle/heart isoform (Homo sapiens) (UniProt Q16816); conditions: Compound concentration 1000.0 nM
[29] = biological target: MAP kinase-interacting serine/threonine-protein kinase 2 (Homo sapiens) (UniProt Q9HBH9); conditions: Compound concentration 1000.0 nM
[30] = biological target: Non-receptor tyrosine-protein kinase TYK2 (Homo sapiens) (UniProt P29597); conditions: Compound concentration 1000.0 nM
[31] = system: Receptor-type tyrosine-protein kinase FLT3 (Homo sapiens), P36888 [N841I]; conditions: Compound concentration 1000.0 nM
[32] = biological target: Alpha-1B adrenergic receptor (Homo sapiens) (UniProt P35368); conditions: Compound concentration 10.0 uM
[33] = biological target: Ribosomal protein S6 kinase alpha-5 (Homo sapiens) (UniProt O75582); conditions: Compound concentration 1000.0 nM
[34] = biological target: Serine/threonine-protein kinase haspin (Homo sapiens) (UniProt Q8TF76); conditions: Compound concentration 1000.0 nM
[35] = system: Phosphatidylinositol 4,5-bisphosphate 3-kinase catalytic subunit alpha isoform (Homo sapiens), P42336 [H1047L]; conditions: Compound concentration 1000.0 nM
Phosphatidylinositol 4,5-bisphosphate 3-kinase catalytic subunit alpha isoform (Homo sapiens), P42336 [H1047L], sequence (P42336 whole entry H1047L, canonical isoform): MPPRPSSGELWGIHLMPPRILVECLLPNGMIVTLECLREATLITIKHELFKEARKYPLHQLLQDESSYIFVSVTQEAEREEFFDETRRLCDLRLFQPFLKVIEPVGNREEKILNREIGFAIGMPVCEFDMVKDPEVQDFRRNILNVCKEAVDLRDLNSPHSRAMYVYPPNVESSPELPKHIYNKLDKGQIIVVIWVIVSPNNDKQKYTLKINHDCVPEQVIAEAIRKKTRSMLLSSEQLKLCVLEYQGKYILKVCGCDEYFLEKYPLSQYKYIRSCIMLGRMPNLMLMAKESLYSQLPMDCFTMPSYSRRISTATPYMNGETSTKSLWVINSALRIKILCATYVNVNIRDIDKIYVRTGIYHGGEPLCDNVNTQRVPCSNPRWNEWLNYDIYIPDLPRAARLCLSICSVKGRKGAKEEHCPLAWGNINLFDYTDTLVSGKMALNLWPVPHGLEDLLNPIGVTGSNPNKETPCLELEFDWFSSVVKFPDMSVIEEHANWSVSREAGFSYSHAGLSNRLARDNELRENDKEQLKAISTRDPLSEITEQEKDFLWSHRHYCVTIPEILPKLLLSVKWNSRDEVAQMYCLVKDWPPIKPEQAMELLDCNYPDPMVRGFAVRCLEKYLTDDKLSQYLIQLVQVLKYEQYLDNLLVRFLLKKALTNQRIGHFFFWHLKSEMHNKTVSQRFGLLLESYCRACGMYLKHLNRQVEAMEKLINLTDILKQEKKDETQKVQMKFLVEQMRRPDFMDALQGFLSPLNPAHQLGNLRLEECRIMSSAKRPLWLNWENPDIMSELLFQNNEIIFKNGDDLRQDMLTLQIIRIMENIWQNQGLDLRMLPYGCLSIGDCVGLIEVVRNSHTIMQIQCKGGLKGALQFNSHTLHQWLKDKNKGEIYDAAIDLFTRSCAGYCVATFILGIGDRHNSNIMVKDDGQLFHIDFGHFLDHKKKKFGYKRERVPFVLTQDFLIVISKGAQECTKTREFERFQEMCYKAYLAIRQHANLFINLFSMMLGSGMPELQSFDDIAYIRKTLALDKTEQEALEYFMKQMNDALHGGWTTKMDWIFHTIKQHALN

[36] = biological target: Mitogen-activated protein kinase 9 (Homo sapiens) (UniProt P45984); conditions: Compound concentration 1000.0 nM
[37] = biological target: NUAK family SNF1-like kinase 1 (Homo sapiens) (UniProt O60285); conditions: Compound concentration 1000.0 nM
[38] = biological target: Cytoplasmic tyrosine-protein kinase BMX (Homo sapiens) (UniProt P51813); conditions: Compound concentration 1000.0 nM
[39] = biological target: Ephrin type-B receptor 4 (Homo sapiens) (UniProt P54760); conditions: Compound concentration 1000.0 nM
[40] = biological target: Receptor-interacting serine/threonine-protein kinase 4 (Homo sapiens) (UniProt P57078); conditions: Compound concentration 1000.0 nM
[41] = biological target: Hormonally up-regulated neu tumor-associated kinase (Homo sapiens) (UniProt P57058); conditions: Compound concentration 1000.0 nM
[42] = biological target: Serine/threonine-protein kinase LATS2 (Homo sapiens) (UniProt Q9NRM7); conditions: Compound concentration 1000.0 nM
Serine/threonine-protein kinase LATS2 (Homo sapiens), sequence (Q9NRM7 whole entry, canonical isoform): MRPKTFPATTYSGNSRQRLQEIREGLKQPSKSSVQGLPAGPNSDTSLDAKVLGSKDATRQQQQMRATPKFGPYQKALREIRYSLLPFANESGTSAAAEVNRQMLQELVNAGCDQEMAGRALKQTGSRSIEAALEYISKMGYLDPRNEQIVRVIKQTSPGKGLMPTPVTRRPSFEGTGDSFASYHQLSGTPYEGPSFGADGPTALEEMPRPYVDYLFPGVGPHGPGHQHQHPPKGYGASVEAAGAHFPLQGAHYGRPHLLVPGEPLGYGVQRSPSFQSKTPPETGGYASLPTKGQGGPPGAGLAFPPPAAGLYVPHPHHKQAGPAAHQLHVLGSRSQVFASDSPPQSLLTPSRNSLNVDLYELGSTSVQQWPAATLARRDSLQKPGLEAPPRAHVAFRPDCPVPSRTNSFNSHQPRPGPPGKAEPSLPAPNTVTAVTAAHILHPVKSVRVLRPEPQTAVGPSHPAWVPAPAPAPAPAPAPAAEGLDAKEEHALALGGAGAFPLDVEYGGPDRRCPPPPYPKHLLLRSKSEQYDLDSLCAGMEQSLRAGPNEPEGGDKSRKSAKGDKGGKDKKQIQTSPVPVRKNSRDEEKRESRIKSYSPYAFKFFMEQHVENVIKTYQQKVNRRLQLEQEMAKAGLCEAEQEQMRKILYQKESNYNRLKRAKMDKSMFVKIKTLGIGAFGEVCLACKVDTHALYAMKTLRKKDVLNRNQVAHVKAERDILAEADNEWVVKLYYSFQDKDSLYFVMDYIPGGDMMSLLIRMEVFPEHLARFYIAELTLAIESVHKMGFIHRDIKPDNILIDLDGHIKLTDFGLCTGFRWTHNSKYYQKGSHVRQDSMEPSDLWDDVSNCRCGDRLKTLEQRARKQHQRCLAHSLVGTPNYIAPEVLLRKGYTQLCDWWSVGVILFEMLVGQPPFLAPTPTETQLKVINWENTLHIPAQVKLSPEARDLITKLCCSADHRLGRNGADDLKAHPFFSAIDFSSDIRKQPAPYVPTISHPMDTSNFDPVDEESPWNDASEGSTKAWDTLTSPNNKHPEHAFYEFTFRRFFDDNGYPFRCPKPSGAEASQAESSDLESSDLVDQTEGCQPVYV

[43] = system: Phosphatidylinositol 4,5-bisphosphate 3-kinase catalytic subunit alpha isoform (Homo sapiens), P42336 [E542K]; conditions: Compound concentration 1000.0 nM
Phosphatidylinositol 4,5-bisphosphate 3-kinase catalytic subunit alpha isoform (Homo sapiens), P42336 [E542K], sequence (P42336 whole entry E542K, canonical isoform): as the sequence (P42336 whole entry H1047L, canonical isoform) above, with E542K, L1047H counted along it

[44] = biological target: Mu-type opioid receptor (Homo sapiens) (UniProt P35372); conditions: Compound concentration 10.0 uM

Compound: C[C@H](NC(=O)c1cnc2n1[C@](C)(Cc1ccc(C#N)cc1)C(=O)N2c1cc(Cl)c(F)c(Cl)c1)C(=O)NC1(c2ccccn2)CC1 [BI 1950]
- residual activity [1]: 83%
- residual activity [2]: 100%
- residual activity [3]: 92%
- residual activity [4]: 100%
- Kd (Integrin alpha-L): 9 nM (active)
- residual activity [5]: 100%
- residual activity [6]: 91%
- residual activity [7]: 85%
- inhibition [8]: 9.3%
- residual activity [9]: 100%
- inhibition [10]: 3.2%
- residual activity [11]: 100%
- residual activity [12]: 100%
- residual activity [13]: 100%
- residual activity [14]: 63%
- residual activity [15]: 100%
- residual activity [16]: 91%
- residual activity [17]: 100%
- residual activity [18]: 100%
- residual activity [19]: 91%
- residual activity [20]: 100%
- residual activity [21]: 100%
- residual activity [22]: 100%
- residual activity [23]: 100%
- residual activity [24]: 100%
- residual activity [25]: 94%
- residual activity [26]: 100%
- residual activity [27]: 100%
- residual activity [28]: 100%
- residual activity [29]: 100%
- residual activity [30]: 100%
- residual activity [31]: 78%
- inhibition [32]: 2.35%
- residual activity [33]: 100%
- residual activity [34]: 100%
- residual activity [35]: 81%
- residual activity [36]: 92%
- residual activity [37]: 99%
- residual activity [38]: 77%
- residual activity [39]: 100%
- residual activity [40]: 100%
- residual activity [41]: 100%
- residual activity [42]: 100%
- residual activity [43]: 100%
- inhibition [44]: 17.4%

Compound: C[C@@]1(Cc2ccc(C#N)cc2)C(=O)N(c2cc(Cl)cc(Cl)c2)c2ncc(C(=O)NC3(c4nc(C5CCC5)no4)CC3)n21 [BI 9446]
- residual activity [1]: 78%
- residual activity [2]: 88%
- residual activity [3]: 100%
- residual activity [4]: 100%
- Kd (Integrin alpha-L): > 1000 nM (not active)
- residual activity [5]: 100%
- residual activity [6]: 100%
- residual activity [7]: 100%
- inhibition [8]: 31.9%
- residual activity [9]: 100%
- inhibition [10]: 10.3%
- residual activity [11]: 98%
- residual activity [12]: 100%
- residual activity [13]: 100%
- residual activity [14]: 95%
- residual activity [15]: 100%
- residual activity [16]: 92%
- residual activity [17]: 100%
- residual activity [18]: 100%
- residual activity [19]: 99%
- residual activity [20]: 100%
- residual activity [21]: 98%
- residual activity [22]: 100%
- residual activity [23]: 100%
- residual activity [24]: 100%
- residual activity [25]: 86%
- residual activity [26]: 12%
- residual activity [27]: 100%
- residual activity [28]: 100%
- residual activity [29]: 100%
- residual activity [30]: 100%
- residual activity [31]: 89%
- inhibition [32]: 23.8%
- residual activity [33]: 100%
- residual activity [34]: 100%
- residual activity [35]: 96%
- residual activity [36]: 100%
- residual activity [37]: 100%
- residual activity [38]: 40%
- residual activity [39]: 100%
- residual activity [40]: 100%
- residual activity [41]: 100%
- residual activity [42]: 92%
- residual activity [43]: 83%
- inhibition [44]: 31.1%
